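How tested: cells in 96-well plates exposed to compound for 48 hours at five concentrations. GI50: concentration for 50% inhibition of growth.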 Calls of active or inactive are those of the source. No stated cut-off is given here; in the data, active = GI50 up to about 1.1 µM and inactive = higher.
Experiments:
Experiment in all cases: NCI anticancer screen, dose series, 48 h
[1] = system: SF-295
[2] = system: UO-31
[3] = system: CAKI-1
[4] = system: NCI-H460
[5] = system: SK-MEL-2
[6] = system: NCI-H522
[7] = system: MCF7
[8] = system: SF-539
[9] = system: PC-3
[10] = system: NCI-H23
[11] = system: BT-549
[12] = system: SR
[13] = system: A549
[14] = system: HCT-15
[15] = system: HCT-116
[16] = system: SW-620
[17] = system: SK-MEL-28
[18] = system: HOP-92
[19] = system: HCC 2998

SMILES | GI50 [1] | GI50 [2] | GI50 [3] | GI50 [4] | GI50 [5] | GI50 [6] | GI50 [7] | GI50 [8] | GI50 [9] | GI50 [10] | GI50 [11] | GI50 [12] | GI50 [13] | GI50 [14] | GI50 [15] | GI50 [16] | GI50 [17] | GI50 [18] | GI50 [19]
O=C(O)c1nnsc1COCc1ccccc1 | > 100 µM (inactive) | > 100 µM (inactive) | > 100 µM (inactive) | > 100 µM (inactive) | > 100 µM (inactive) | > 100 µM (inactive) | > 100 µM (inactive) | > 100 µM (inactive) | > 100 µM (inactive) | > 100 µM (inactive) | > 100 µM (inactive) | > 100 µM (inactive) | > 100 µM (inactive) | > 100 µM | > 100 µM (inactive) | > 100 µM (inactive) | > 100 µM (inactive) | > 100 µM (inactive) | 
CC(C)=CCNc1ncnc2c1c(C#N)cn2C1OC(CO)C(O)C1O (stereo unspecified) | > 100 µM (inactive) | 32.8 µM (inactive) | 73.8 µM (inactive) | 4.02 µM (inactive) | 39.7 µM (inactive) | 7.64 µM (inactive) | < 0.019 µM (active) | > 72.1 µM (inactive) | 32.5 µM (inactive) | > 56.5 µM (inactive) | > 100 µM (inactive) | 5.45 µM (inactive) | 8.32 µM (inactive) | 0.603 µM | 4.61 µM (inactive) | 10 µM (inactive) | > 100 µM (inactive) | 24.3 µM (inactive) | 
Cc1ccc(/N=C2N=C(Cl)/C(=C\c3ccco3)N\2)cc1 | > 100 µM (inactive) | > 100 µM (inactive) | > 100 µM (inactive) | > 100 µM (inactive) | > 100 µM (inactive) | > 100 µM (inactive) | > 100 µM (inactive) | > 100 µM (inactive) | > 100 µM (inactive) | > 100 µM (inactive) | > 100 µM (inactive) | 96.8 µM (inactive) | > 100 µM (inactive) | > 100 µM | > 100 µM (inactive) | > 100 µM (inactive) | > 100 µM (inactive) | > 100 µM (inactive) | 
Cc1nc2ccc(S(=O)(=O)O)cc2c(=O)n1-c1ccc(C(=O)NN2C(=O)C(Cl)C2c2ccccc2O)cc1 (stereo unspecified) | > 100 µM (inactive) | > 100 µM (inactive) | > 100 µM (inactive) |  | > 100 µM (inactive) | > 100 µM (inactive) | > 100 µM (inactive) | 92.3 µM (inactive) | > 100 µM (inactive) | > 100 µM (inactive) | > 100 µM (inactive) | > 100 µM (inactive) | > 100 µM (inactive) | > 100 µM | > 100 µM (inactive) | > 100 µM (inactive) | > 100 µM (inactive) | > 100 µM (inactive) | 
CC(=O)N1CCN(CCCCN2c3ccccc3Sc3cc(N=[N+]=[N-])ccc32)CC1 | 16.8 µM (inactive) | 11.3 µM (inactive) | 12.1 µM (inactive) | 14.1 µM (inactive) |  | 13 µM (inactive) | 14 µM (inactive) | 17.4 µM (inactive) | 7 µM (inactive) | 15.7 µM (inactive) | 17.3 µM (inactive) | 9.06 µM (inactive) | 16.1 µM (inactive) | 14.9 µM | 13.8 µM (inactive) | 15.5 µM (inactive) | 18.1 µM (inactive) |  | 14.5 µM (inactive)
O=C1c2cccc3cc([N+](=O)[O-])cc(c23)C(=O)N1CCCN1CCN(CCCNc2ccc3ncn4c5ccccc5c(=O)c2c34)CC1 | < 0.005 µM (active) | < 0.005 µM (active) | < 0.005 µM (active) | < 0.005 µM (active) | 0.0191 µM (active) | < 0.005 µM (active) | < 0.005 µM (active) | < 0.005 µM (active) | < 0.005 µM (active) | < 0.005 µM (active) | < 0.005 µM (active) |  | < 0.005 µM (active) | < 0.005 µM | < 0.005 µM (active) | < 0.005 µM (active) | 0.0562 µM (active) | 0.013 µM (active) | < 0.005 µM (active)
O=C1CC[C@@]23CC(=O)O[C@@H]2CCCC3C1 (stereo partly specified) | > 100 µM (inactive) | > 100 µM (inactive) | > 100 µM (inactive) | > 100 µM (inactive) | > 100 µM (inactive) | > 100 µM (inactive) | > 100 µM (inactive) | > 100 µM (inactive) | > 100 µM (inactive) | > 100 µM (inactive) | > 100 µM (inactive) | > 100 µM (inactive) | > 100 µM (inactive) | > 100 µM | > 100 µM (inactive) | > 100 µM (inactive) | > 100 µM (inactive) |  | > 100 µM (inactive)
O=C1C=C(c2ccccc2)OC1C1Sc2ccccc2NC1=O (stereo unspecified) | 5.98 µM (inactive) | 7.26 µM (inactive) | 11.6 µM (inactive) | 2.74 µM (inactive) | 8.51 µM (inactive) | 6.85 µM (inactive) | 3.81 µM (inactive) | 5.38 µM (inactive) | 10.9 µM (inactive) | 3.77 µM (inactive) | 14.6 µM (inactive) |  | 3.06 µM (inactive) | 12.7 µM | 4.5 µM (inactive) | 9.23 µM (inactive) | 9.73 µM (inactive) | 9.68 µM (inactive) | 5.69 µM (inactive)
COC(=O)c1ccc(Oc2nc3ccccc3nc2-c2cccs2)cc1 | 18.7 µM (inactive) | > 100 µM (inactive) | 43.4 µM (inactive) | 33.7 µM (inactive) | > 100 µM (inactive) | 76 µM (inactive) | 3.16 µM (inactive) | 5.71 µM (inactive) | 44.9 µM (inactive) | 23.6 µM (inactive) | 45.7 µM (inactive) | 48.5 µM (inactive) | 26.1 µM (inactive) | 75.5 µM | 41.3 µM (inactive) | 46.8 µM (inactive) | > 100 µM (inactive) |  | 
CNc1ccccc1S(=O)(=O)c1ccccc1[N+](=O)[O-] | 80.2 µM (inactive) | 43.6 µM (inactive) |  | 58.7 µM (inactive) | 88.3 µM (inactive) | 26 µM (inactive) | 85.1 µM (inactive) | > 100 µM (inactive) | 52.4 µM (inactive) | 44.6 µM (inactive) | 23.6 µM (inactive) | > 100 µM (inactive) | 77.3 µM (inactive) | 46.3 µM | 66.5 µM (inactive) | > 100 µM (inactive) | 91 µM (inactive) |  | > 100 µM (inactive)
CCCC(=O)OCC1OC(n2cc(F)c(=O)[nH]c2=O)C(F)C1O (stereo unspecified) | > 27.5 µM (inactive) | 74.8 µM (inactive) | > 10 µM (inactive) | 2.86 µM (inactive) | > 100 µM (inactive) | > 75 µM (inactive) | 0.456 µM (active) | 0.774 µM (active) | > 100 µM (inactive) | > 88.7 µM (inactive) | 13.9 µM (inactive) |  | 5.85 µM (inactive) | > 84.7 µM | > 22.4 µM (inactive) | > 100 µM (inactive) | > 100 µM (inactive) | > 100 µM (inactive) | > 100 µM (inactive)
O=C(O)/C=C(/CC(=O)O)C(=O)O | 18.1 µM (inactive) | 17.2 µM (inactive) | 20.6 µM (inactive) | 35.2 µM (inactive) | 19.5 µM (inactive) | 17.9 µM (inactive) | 19.3 µM (inactive) | 12.3 µM (inactive) | 19.6 µM (inactive) | 23.2 µM (inactive) | 21.1 µM (inactive) |  | 18.6 µM (inactive) | 22.7 µM | 18.2 µM (inactive) | 19 µM (inactive) | 21.2 µM (inactive) |  | 30.8 µM (inactive)
